In the supplement of paper PMC13207355:

Columns and labels:
Details in all cases: exposure time: 72 h
E13 [1] = patient-derived glioblastoma stem cells of classical subtype; assay: surviving fraction (nuclei count normalised to DMSO); higher = more cells surviving (less toxic)
E31 [2] = patient-derived glioblastoma stem cells of proneural subtype; assay: as above
E34 [3] = patient-derived glioblastoma stem cells of proneural subtype; assay: as above
E28 [4] = patient-derived glioblastoma stem cells of classical subtype; assay: as above
E21 [5] = patient-derived glioblastoma stem cells of mesenchymal subtype; assay: as above
FT3469 [6] = normal neural stem cell line; assay: as above
E57 [7] = patient-derived glioblastoma stem cells of mesenchymal subtype; assay: as above
E13 [8] = assay: phenotypic distance (Euclidean, principal components) from DMSO controls (arbitrary units); higher = stronger morphological change
E31 [9] = assay: as above
E34 [10] = assay: as above
E28 [11] = assay: as above
E21 [12] = assay: as above
FT3469 [13] = assay: as above
E57 [14] = assay: as above
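For phenotypic distance (Euclidean, principal components) from DMSO controls in this document: cell Painting imaging in 384-well plates, CellProfiler features reduced to at least 20 principal components, Euclidean distance versus same-plate DMSO vehicle wells (0.1% v/v), median over six images per well.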
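For surviving fraction (nuclei count normalised to DMSO) in this document: nuclei counted by high-content imaging of Hoechst-stained cells in laminin-coated 384-well plates, relative to 0.1% DMSO vehicle wells, with staurosporine as cell-death control.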

NCc1ccccc1CC(=O)N[C@@H]1C(=O)N2C(C(=O)O)=C(CSc3nnnn3CC(=O)O)CS[C@H]12 [Ceforanide]
Details | phenotypic distance | surviving fraction
E13 [1], 4.1 nM | – | 0.857
E13 [1], 12.3 nM | – | 0.899
E13 [1], 37 nM | – | 0.892
E13 [1], 111.1 nM | – | 0.955
E13 [1], 333.3 nM | – | 0.967
E13 [1], 1000 nM | – | 0.991
E13 [1], 3000 nM | – | 0.821
E13 [8], 4.1 nM | 0.868 | –
E13 [8], 12.3 nM | 0.834 | –
E13 [8], 37 nM | 0.565 | –
E13 [8], 111.1 nM | 2.99 | –
E13 [8], 333.3 nM | 0.49 | –
E13 [8], 1000 nM | 0.481 | –
E13 [8], 3000 nM | 1.06 | –
E21 [5], 4.1 nM | – | 0.96
E21 [5], 12.3 nM | – | 1
E21 [5], 37 nM | – | 1
E21 [5], 111.1 nM | – | 0.945
E21 [5], 333.3 nM | – | 0.927
E21 [5], 1000 nM | – | 0.94
E21 [5], 3000 nM | – | 0.913
E21 [12], 4.1 nM | 0.452 | –
E21 [12], 12.3 nM | 0.464 | –
E21 [12], 37 nM | 0.533 | –
E21 [12], 111.1 nM | 0.73 | –
E21 [12], 333.3 nM | 0.545 | –
E21 [12], 1000 nM | 0.643 | –
E21 [12], 3000 nM | 0.896 | –
E28 [4], 4.1 nM | – | 1.01
E28 [4], 12.3 nM | – | 0.94
E28 [4], 37 nM | – | 1.19
E28 [4], 111.1 nM | – | 0.907
E28 [4], 333.3 nM | – | 0.952
E28 [4], 1000 nM | – | 0.963
E28 [4], 3000 nM | – | 0.899
E28 [11], 4.1 nM | 0.755 | –
E28 [11], 12.3 nM | 0.829 | –
E28 [11], 37 nM | 0.872 | –
E28 [11], 111.1 nM | 0.701 | –
E28 [11], 333.3 nM | 0.858 | –
E28 [11], 1000 nM | 1.54 | –
E28 [11], 3000 nM | 1.07 | –
E31 [2], 4.1 nM | – | 0.969
E31 [2], 12.3 nM | – | 0.993
E31 [2], 37 nM | – | 0.944
E31 [2], 111.1 nM | – | 1.06
E31 [2], 333.3 nM | – | 0.801
E31 [2], 1000 nM | – | 0.895
E31 [2], 3000 nM | – | 1.03
E31 [9], 4.1 nM | 0.821 | –
E31 [9], 12.3 nM | 0.599 | –
E31 [9], 37 nM | 0.687 | –
E31 [9], 111.1 nM | 0.68 | –
E31 [9], 333.3 nM | 0.855 | –
E31 [9], 1000 nM | 0.963 | –
E31 [9], 3000 nM | 0.779 | –
E34 [3], 4.1 nM | – | 1.07
E34 [3], 12.3 nM | – | 1.01
E34 [3], 37 nM | – | 1.2
E34 [3], 111.1 nM | – | 0.873
E34 [3], 333.3 nM | – | 1.1
E34 [3], 1000 nM | – | 0.901
E34 [3], 3000 nM | – | 0.86
E34 [10], 4.1 nM | 0.618 | –
E34 [10], 12.3 nM | 0.456 | –
E34 [10], 37 nM | 0.886 | –
E34 [10], 111.1 nM | 0.834 | –
E34 [10], 333.3 nM | 0.882 | –
E34 [10], 1000 nM | 0.522 | –
E34 [10], 3000 nM | 0.877 | –
E57 [7], 4.1 nM | – | 0.871
E57 [7], 12.3 nM | – | 0.985
E57 [7], 37 nM | – | 0.982
E57 [7], 111.1 nM | – | 0.995
E57 [7], 333.3 nM | – | 1
E57 [7], 1000 nM | – | 0.926
E57 [7], 3000 nM | – | 0.897
E57 [14], 4.1 nM | 0.735 | –
E57 [14], 12.3 nM | 0.47 | –
E57 [14], 37 nM | 0.604 | –
E57 [14], 111.1 nM | 0.425 | –
E57 [14], 333.3 nM | 0.594 | –
E57 [14], 1000 nM | 0.792 | –
E57 [14], 3000 nM | 0.948 | –
FT3469 [6], 4.1 nM | – | 0.899
FT3469 [6], 12.3 nM | – | 0.944
FT3469 [6], 37 nM | – | 0.806
FT3469 [6], 111.1 nM | – | 1.05
FT3469 [6], 333.3 nM | – | 0.931
FT3469 [6], 1000 nM | – | 1.08
FT3469 [6], 3000 nM | – | 0.785
FT3469 [13], 4.1 nM | 0.788 | –
FT3469 [13], 12.3 nM | 0.666 | –
FT3469 [13], 37 nM | 0.745 | –
FT3469 [13], 111.1 nM | 0.803 | –
FT3469 [13], 333.3 nM | 0.916 | –
FT3469 [13], 1000 nM | 0.851 | –
FT3469 [13], 3000 nM | 1.28 | –

COc1cc([C@@H]2c3cc4c(cc3[C@@H](O[C@@H]3O[C@@H]5CO[C@@H](C)O[C@H]5[C@H](O)[C@H]3O)[C@H]3COC(=O)[C@H]23)OCO4)cc(OC)c1O [Etoposide]
Details | phenotypic distance | surviving fraction
E13 [1], 4.11523 nM | – | 1.03
E13 [1], 12.34567901 nM | – | 0.806
E13 [1], 37.037 nM | – | 0.901
E13 [1], 111.1111111 nM | – | 0.78
E13 [1], 333.333 nM | – | 0.516
E13 [1], 1000 nM | – | 0.473
E13 [1], 3000 nM | – | 0.374
E13 [8], 4.11523 nM | 1.04 | –
E13 [8], 12.34567901 nM | 0.799 | –
E13 [8], 37.037 nM | 0.736 | –
E13 [8], 111.1111111 nM | 0.704 | –
E13 [8], 333.333 nM | 2.88 | –
E13 [8], 1000 nM | 4.56 | –
E13 [8], 3000 nM | 5.77 | –
E21 [5], 4.11523 nM | – | 0.896
E21 [5], 12.34567901 nM | – | 0.855
E21 [5], 37.037 nM | – | 0.885
E21 [5], 111.1111111 nM | – | 0.812
E21 [5], 333.333 nM | – | 0.588
E21 [5], 1000 nM | – | 0.47
E21 [5], 3000 nM | – | 0.298
E21 [12], 4.11523 nM | 0.716 | –
E21 [12], 12.34567901 nM | 0.855 | –
E21 [12], 37.037 nM | 0.967 | –
E21 [12], 111.1111111 nM | 1.35 | –
E21 [12], 333.333 nM | 2.88 | –
E21 [12], 1000 nM | 5.75 | –
E21 [12], 3000 nM | 5.93 | –
E28 [4], 4.11523 nM | – | 0.881
E28 [4], 12.34567901 nM | – | 0.762
E28 [4], 37.037 nM | – | 0.621
E28 [4], 111.1111111 nM | – | 0.419
E28 [4], 333.333 nM | – | 0.436
E28 [4], 1000 nM | – | 0.266
E28 [4], 3000 nM | – | 0.364
E28 [11], 4.11523 nM | 0.783 | –
E28 [11], 12.34567901 nM | 1.11 | –
E28 [11], 37.037 nM | 1.44 | –
E28 [11], 111.1111111 nM | 1.78 | –
E28 [11], 333.333 nM | 2.64 | –
E28 [11], 1000 nM | 2.9 | –
E28 [11], 3000 nM | 2.64 | –
E31 [2], 4.11523 nM | – | 0.746
E31 [2], 12.34567901 nM | – | 0.823
E31 [2], 37.037 nM | – | 0.554
E31 [2], 111.1111111 nM | – | 0.493
E31 [2], 333.333 nM | – | 0.307
E31 [2], 1000 nM | – | 0.283
E31 [2], 3000 nM | – | 0.231
E31 [9], 4.11523 nM | 0.939 | –
E31 [9], 12.34567901 nM | 0.828 | –
E31 [9], 37.037 nM | 1.58 | –
E31 [9], 111.1111111 nM | 3.2 | –
E31 [9], 333.333 nM | 4.03 | –
E31 [9], 1000 nM | 2 | –
E31 [9], 3000 nM | 2.86 | –
E34 [3], 4.11523 nM | – | 0.83
E34 [3], 12.34567901 nM | – | 0.966
E34 [3], 37.037 nM | – | 0.848
E34 [3], 111.1111111 nM | – | 0.873
E34 [3], 333.333 nM | – | 0.668
E34 [3], 1000 nM | – | 0.534
E34 [3], 3000 nM | – | 0.557
E34 [10], 4.11523 nM | 0.877 | –
E34 [10], 12.34567901 nM | 0.742 | –
E34 [10], 37.037 nM | 0.789 | –
E34 [10], 111.1111111 nM | 1.03 | –
E34 [10], 333.333 nM | 2.75 | –
E34 [10], 1000 nM | 3.46 | –
E34 [10], 3000 nM | 4.17 | –
E57 [7], 4.11523 nM | – | 0.919
E57 [7], 12.34567901 nM | – | 1.01
E57 [7], 37.037 nM | – | 0.959
E57 [7], 111.1111111 nM | – | 0.851
E57 [7], 333.333 nM | – | 0.435
E57 [7], 1000 nM | – | 0.295
E57 [7], 3000 nM | – | 0.182
E57 [14], 4.11523 nM | 0.758 | –
E57 [14], 12.34567901 nM | 0.794 | –
E57 [14], 37.037 nM | 0.549 | –
E57 [14], 111.1111111 nM | 1.24 | –
E57 [14], 333.333 nM | 4.25 | –
E57 [14], 1000 nM | 6.83 | –
E57 [14], 3000 nM | 7.52 | –
FT3469 [6], 4.11523 nM | – | 0.827
FT3469 [6], 12.34567901 nM | – | 0.774
FT3469 [6], 37.037 nM | – | 0.902
FT3469 [6], 111.1111111 nM | – | 0.731
FT3469 [6], 333.333 nM | – | 0.662
FT3469 [6], 1000 nM | – | 0.582
FT3469 [6], 3000 nM | – | 0.566
FT3469 [13], 4.11523 nM | 0.576 | –
FT3469 [13], 12.34567901 nM | 0.799 | –
FT3469 [13], 37.037 nM | 3.73 | –
FT3469 [13], 111.1111111 nM | 1.07 | –
FT3469 [13], 333.333 nM | 1.54 | –
FT3469 [13], 1000 nM | 2.2 | –
FT3469 [13], 3000 nM | 1.92 | –
